Measured values reported in ChEMBL document CHEMBL1201862, “PubChem BioAssay data set” (2004).
Calls of active or inactive are those of the source.

Experiments:
Fatty acid synthase [1] = target: T1, Fatty acid synthase (Homo sapiens, UniProt P49327); assay: FAS thioesterase domain inhibitors, dose response, biochemical, endpoint fluorescence intensity, uHTS hits (AID 624327); format: functional;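 also: fluorescence from hydrolysis of an O-methyl fluorescein acyl ester substrate by the enzyme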
[2] = target: T2, High affinity choline transporter 1 (Homo sapiens, UniProt Q9GZV3); assay: CHT inhibitors, dose response, cell-based, 5-point CRC, membrane potential dye (AID 504840); format: functional
T2 sequence (Q9GZV3 whole entry): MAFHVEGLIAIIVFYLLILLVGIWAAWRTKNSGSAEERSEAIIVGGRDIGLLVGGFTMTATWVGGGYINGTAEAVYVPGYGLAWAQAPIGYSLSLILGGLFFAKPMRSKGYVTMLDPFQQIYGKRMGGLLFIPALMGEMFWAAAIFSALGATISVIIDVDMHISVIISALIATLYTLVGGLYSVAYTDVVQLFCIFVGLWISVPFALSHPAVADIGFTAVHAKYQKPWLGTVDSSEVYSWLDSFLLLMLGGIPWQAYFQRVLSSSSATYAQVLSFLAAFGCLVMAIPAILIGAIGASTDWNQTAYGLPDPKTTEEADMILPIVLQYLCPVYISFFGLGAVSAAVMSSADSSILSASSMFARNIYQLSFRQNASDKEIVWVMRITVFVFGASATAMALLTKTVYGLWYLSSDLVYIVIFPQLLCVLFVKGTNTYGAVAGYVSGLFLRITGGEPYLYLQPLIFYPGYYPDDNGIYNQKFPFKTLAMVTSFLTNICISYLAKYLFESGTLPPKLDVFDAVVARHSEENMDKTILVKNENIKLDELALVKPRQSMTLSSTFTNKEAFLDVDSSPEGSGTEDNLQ

Protein RecA = target: T3, Protein RecA (Mycobacterium tuberculosis, UniProt P9WHJ3); assay: Fluorescence Cell-Free Homogeneous Dose Retest to Identify Inhibitors of RecA-Intein Splicing Activity. [Related pubchem assays (depositor defined):AID2097, AID2223, AID489010, AID492950]; format: functional
T3 sequence (P9WHJ3 whole entry): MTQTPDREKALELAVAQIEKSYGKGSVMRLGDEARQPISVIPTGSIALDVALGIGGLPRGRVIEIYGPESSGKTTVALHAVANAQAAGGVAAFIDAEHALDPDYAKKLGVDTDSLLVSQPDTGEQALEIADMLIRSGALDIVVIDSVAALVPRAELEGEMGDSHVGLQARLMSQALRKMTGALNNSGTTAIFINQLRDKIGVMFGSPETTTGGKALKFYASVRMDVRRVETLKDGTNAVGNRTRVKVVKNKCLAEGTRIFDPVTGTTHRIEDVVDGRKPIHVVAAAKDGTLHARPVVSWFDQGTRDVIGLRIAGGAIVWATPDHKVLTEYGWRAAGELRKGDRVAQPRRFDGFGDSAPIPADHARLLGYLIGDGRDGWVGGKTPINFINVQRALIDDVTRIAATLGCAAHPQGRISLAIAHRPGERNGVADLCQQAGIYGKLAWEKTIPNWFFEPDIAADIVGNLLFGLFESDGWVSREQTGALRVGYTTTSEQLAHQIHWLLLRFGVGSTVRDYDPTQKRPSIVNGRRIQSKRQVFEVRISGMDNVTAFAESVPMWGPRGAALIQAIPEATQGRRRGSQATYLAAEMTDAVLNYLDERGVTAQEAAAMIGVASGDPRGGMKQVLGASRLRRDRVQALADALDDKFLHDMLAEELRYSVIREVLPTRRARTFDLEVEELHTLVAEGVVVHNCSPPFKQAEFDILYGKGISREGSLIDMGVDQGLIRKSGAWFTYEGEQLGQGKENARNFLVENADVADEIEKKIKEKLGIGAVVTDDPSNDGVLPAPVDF

[3] = target: T4, Serine/threonine-protein phosphatase (Homo sapiens, UniProt Q9BPW0); assay: PP5 phosphatase inhibitors, dose response, biochemical, fluorescence (AID 2395)
T4 sequence (Q9BPW0 whole entry): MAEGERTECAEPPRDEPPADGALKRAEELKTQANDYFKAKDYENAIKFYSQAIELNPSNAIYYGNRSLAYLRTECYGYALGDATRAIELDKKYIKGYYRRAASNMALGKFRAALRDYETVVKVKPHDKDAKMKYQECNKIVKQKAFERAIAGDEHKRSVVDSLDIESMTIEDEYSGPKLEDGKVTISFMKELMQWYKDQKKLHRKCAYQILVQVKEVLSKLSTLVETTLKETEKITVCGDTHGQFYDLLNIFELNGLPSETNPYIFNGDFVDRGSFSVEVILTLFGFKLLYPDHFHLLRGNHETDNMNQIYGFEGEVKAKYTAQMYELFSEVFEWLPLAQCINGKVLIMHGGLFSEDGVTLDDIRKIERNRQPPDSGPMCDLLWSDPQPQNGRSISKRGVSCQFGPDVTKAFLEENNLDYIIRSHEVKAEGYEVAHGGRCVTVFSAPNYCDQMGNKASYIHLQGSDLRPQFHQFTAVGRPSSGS

[4] = target: T2, High affinity choline transporter 1; assay: CHT inhibitors, dose response, cell-based, 10-point CRC, membrane potential dye (AID 588401); format: functional;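 also: membrane potential dye fluorescence of choline-evoked depolarization via CHT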
Genome polyprotein = Genome polyprotein (dengue virus type 2, UniProt P29990); assay: Dengue-2 NS5 methyltransferase inhibitors, primary screen, biochemical, confirmation dose response (AID 588689); format: functional
Chain of Genome polyprotein (P29990 2492-3391 limits assumed): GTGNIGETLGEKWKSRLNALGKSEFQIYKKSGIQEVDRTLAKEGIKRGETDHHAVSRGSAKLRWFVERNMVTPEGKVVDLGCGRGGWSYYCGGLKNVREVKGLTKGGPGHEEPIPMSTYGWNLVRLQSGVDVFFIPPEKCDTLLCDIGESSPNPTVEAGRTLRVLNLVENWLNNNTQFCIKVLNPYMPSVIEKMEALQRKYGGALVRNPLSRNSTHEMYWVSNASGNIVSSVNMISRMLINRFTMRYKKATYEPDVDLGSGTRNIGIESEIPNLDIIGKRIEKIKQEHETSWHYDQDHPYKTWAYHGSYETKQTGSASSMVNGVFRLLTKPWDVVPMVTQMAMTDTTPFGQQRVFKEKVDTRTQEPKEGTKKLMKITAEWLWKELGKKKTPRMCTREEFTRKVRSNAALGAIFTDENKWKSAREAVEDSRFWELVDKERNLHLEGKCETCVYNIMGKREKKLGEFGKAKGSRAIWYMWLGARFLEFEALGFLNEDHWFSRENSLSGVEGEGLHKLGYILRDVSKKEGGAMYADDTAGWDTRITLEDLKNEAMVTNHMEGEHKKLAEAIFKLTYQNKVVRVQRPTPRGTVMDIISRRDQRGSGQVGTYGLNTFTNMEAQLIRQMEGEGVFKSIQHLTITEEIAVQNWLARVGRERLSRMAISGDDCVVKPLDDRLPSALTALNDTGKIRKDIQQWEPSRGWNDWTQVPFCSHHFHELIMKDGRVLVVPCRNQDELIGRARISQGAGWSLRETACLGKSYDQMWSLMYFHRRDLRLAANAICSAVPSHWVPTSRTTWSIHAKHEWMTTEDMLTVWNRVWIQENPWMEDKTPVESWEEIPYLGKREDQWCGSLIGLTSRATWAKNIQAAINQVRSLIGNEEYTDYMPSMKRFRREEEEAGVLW

[5] = target: Serine/threonine-protein phosphatase PP1-alpha catalytic subunit (Homo sapiens, UniProt P62136); assay: PP1 phosphatase inhibitors, dose response, biochemical, fluorescence (AID 2394)
Chain of Serine/threonine-protein phosphatase PP1-alpha catalytic subunit (P62136 whole entry, the tested form may be a part): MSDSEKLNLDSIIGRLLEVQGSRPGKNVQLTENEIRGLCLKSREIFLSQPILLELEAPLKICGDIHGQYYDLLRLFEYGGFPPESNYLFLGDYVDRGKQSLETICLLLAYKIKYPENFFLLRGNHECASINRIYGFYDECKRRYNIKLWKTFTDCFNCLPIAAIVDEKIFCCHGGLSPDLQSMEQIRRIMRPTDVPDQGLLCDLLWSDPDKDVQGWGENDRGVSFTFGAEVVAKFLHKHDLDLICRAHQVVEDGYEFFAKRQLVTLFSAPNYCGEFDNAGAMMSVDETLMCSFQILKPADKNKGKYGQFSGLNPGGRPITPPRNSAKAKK

Fatty acid synthase [6] = target: T1, Fatty acid synthase; assay: FAS thioesterase domain inhibitors, dose response, biochemical, kinetic fluorescence intensity (AID 624326); format: functional;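 also: rate of fluorescence rise from hydrolysis of a fluorogenic O-methyl fluorescein ester substrate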
[7] = target: T5, Replicative DNA helicase DnaB (Mycobacterium tuberculosis, UniProt P9WMR3); assay: DnaB intein splicing inhibitors, dose response, biochemical, cell-free fluorescence (AID 449749); format: functional
T5 sequence (P9WMR3 whole entry): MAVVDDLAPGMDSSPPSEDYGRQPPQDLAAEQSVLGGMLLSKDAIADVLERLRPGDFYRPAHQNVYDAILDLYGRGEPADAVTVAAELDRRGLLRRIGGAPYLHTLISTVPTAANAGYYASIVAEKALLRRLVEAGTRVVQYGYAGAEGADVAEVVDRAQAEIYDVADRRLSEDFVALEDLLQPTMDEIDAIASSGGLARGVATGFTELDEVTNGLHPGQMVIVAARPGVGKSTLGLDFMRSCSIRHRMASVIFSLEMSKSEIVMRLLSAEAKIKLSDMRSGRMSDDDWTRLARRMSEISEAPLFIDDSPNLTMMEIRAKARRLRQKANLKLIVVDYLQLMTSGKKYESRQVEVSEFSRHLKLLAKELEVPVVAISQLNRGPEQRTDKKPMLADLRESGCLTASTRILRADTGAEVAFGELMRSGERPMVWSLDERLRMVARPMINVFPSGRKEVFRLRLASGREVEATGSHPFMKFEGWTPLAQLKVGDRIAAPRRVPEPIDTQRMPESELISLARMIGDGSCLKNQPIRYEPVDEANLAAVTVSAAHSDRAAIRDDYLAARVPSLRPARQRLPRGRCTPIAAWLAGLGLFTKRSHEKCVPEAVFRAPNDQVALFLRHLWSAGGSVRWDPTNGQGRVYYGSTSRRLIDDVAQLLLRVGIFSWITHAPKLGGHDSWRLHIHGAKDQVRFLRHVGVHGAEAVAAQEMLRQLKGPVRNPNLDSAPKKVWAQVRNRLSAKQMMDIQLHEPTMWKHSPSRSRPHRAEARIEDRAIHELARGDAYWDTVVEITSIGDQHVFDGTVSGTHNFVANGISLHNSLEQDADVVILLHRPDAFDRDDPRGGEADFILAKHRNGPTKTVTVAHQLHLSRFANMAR

T1 sequence (P49327 whole entry, the tested form may be a part): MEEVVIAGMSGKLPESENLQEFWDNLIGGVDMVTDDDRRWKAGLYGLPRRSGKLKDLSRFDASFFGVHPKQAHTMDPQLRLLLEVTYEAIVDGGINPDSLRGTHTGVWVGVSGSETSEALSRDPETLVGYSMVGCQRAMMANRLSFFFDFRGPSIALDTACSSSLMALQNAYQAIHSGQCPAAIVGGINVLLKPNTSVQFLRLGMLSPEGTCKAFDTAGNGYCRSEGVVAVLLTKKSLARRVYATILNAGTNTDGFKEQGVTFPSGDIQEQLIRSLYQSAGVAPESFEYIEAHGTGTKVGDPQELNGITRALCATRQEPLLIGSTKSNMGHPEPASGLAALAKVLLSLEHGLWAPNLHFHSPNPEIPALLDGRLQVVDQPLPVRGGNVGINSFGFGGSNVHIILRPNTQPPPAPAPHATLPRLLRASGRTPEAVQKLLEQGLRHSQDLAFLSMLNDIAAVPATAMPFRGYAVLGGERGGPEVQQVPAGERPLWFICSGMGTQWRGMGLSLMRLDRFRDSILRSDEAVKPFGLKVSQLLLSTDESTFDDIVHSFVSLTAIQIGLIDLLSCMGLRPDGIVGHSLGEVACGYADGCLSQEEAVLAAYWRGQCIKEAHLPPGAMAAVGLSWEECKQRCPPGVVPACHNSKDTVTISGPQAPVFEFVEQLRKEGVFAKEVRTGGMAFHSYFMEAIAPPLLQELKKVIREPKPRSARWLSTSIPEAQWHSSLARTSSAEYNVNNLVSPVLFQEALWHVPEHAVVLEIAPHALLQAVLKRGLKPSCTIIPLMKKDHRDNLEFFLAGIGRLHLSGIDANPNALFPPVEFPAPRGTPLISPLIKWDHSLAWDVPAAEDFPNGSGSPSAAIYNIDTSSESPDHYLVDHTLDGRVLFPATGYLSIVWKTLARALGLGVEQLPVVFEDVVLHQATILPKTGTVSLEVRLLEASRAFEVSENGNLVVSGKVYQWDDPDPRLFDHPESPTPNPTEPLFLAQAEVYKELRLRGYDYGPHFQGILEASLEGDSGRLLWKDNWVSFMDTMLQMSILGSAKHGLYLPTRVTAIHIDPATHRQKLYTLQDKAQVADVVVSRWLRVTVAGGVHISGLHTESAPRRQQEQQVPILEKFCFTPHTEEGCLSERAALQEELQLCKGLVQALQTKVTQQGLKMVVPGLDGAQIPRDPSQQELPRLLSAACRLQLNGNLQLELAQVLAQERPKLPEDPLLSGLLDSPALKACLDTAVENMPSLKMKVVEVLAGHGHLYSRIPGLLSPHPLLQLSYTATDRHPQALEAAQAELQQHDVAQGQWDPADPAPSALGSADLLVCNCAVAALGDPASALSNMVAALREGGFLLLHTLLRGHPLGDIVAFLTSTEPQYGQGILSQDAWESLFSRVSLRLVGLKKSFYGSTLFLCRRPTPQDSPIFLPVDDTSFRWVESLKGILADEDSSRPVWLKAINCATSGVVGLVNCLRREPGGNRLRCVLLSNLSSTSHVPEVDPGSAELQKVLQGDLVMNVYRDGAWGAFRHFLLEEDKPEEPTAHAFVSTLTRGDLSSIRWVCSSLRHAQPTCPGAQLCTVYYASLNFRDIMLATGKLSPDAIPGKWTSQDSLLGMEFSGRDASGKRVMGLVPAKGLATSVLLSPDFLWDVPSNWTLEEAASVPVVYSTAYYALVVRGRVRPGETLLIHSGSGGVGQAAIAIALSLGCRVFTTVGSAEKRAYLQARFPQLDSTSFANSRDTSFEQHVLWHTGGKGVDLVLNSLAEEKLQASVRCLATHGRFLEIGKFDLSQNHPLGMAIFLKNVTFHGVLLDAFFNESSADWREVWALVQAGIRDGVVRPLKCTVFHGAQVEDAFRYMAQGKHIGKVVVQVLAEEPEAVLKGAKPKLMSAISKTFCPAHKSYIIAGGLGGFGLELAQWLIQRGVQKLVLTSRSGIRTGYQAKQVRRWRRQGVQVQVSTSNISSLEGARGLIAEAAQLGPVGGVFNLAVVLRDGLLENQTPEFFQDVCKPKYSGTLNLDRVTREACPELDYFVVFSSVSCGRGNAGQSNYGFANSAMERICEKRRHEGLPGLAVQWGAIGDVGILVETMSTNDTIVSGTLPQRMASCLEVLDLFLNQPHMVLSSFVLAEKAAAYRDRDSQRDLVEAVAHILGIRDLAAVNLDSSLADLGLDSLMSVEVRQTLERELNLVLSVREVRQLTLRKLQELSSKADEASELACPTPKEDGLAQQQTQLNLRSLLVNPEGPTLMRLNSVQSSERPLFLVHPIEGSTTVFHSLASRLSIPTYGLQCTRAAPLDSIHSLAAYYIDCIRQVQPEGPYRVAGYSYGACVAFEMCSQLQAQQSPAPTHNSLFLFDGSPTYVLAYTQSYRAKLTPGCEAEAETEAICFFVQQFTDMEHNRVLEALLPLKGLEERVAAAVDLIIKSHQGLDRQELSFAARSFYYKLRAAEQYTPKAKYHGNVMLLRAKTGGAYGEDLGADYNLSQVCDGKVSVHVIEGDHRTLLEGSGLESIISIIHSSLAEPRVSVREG

Structure (SMILES): Cc1[nH]n(-c2ccccc2)c(=O)c1C(c1ccc([N+](=O)[O-])cc1)c1c(C)[nH]n(-c2ccccc2)c1=O
- IC50 (Fatty acid synthase [1]): 3.19 µM (active)
- IC50 [2]: 10.3 µM (active)
- EC50 (Protein RecA): 0.39 µM (active)
- IC50 [3]: 9.57 µM (active)
- IC50 [4]: 2.82 µM (active)
- IC50 (Genome polyprotein): 33.2 µM (active)
- IC50 [5]: 29.9 µM (not active)
- IC50 (Fatty acid synthase [6]): 5.6 µM (active)
- AC50 [7]: 1.24 µM (active)
